In patent US20120270928A1, “MICRORNA COMPOUNDS AND METHODS FOR MODULATING MIR-21 ACTIVITY” (REGULUS THERAPEUTICS INC., priority 2011, published 2012):
Strand notation (5' to 3'): a small letter for the sugar, then the base; units joined by * are phosphorothioate-linked, units joined directly phosphodiester-linked; [ ] holds rarer units or linkages, { } end groups; capitals alone tell only the bases. e = 2'-O-(2-methoxyethyl) (MOE); l = locked nucleic acid (LNA); k = constrained ethyl (cEt); [5mC] = 5-methylcytosine; d = 2'-deoxy (DNA)

Experiments:
[1] = tested on: UUO model of kidney fibrosis; test: Unilateral ureteral obstruction (UUO) model of kidney fibrosis: kidney collagen 1A1 and collagen 3A1 expression by real-time PCR; assay type: in vivo, mice; conditions: UUO; 20 mg/kg at days -5, -3, +3; kidney at day 10
Method: Unilateral ureteral obstruction (UUO) is a well-established experimental model of renal injury leading to interstitial fibrosis, and thus is used as an experimental model that is reflective of human kidney disease. UUO is induced by surgically ligating a single ureter. As fibrosis is characterized by an increase in collagen, the presence and extent of kidney fibrosis may be determined by measuring collagen content. Both collagen 1A1 (Col 1A1) and collagen 3A1 (Col 3A1) are measured to assess collagen content. Kidney fibrosis may be visualized by staining tissue samples with picro-sirius red to detect increases in collagen content. Kidney fibrosis may also be observed by measuring the amount of hydroxyproline, which is a major component of collagen, in a sample.
The cEt-containing anti-miR-21 compounds found to be active in the luciferase assay were tested in the UUO model of kidney fibrosis. 25919 comprising 2′-MOE and 2′-fluoro modifications is known to inhibit miR-21 activity in vivo and was included as a positive control. Groups of 8 animals each were treated as follows: UUO only, UUO with PBS, or UUO with anti-miR-21 compound. Relative to the day of the UUO procedure, PBS or anti-miR-21 compound was administered at days −3, −1, and +5. Anti-miR-21 compounds were administered at a dose of 20 mg/kg. As the anti-miR compounds were administered prior to the UUO procedure, this dosing regimen is considered a prophylactic treatment. At day 11, animals were sacrificed and kidney was isolated for measurement of collagen expression. Collagen expression was measured by real-time PCR and normalized first to GAPDH and then to the sham control animals.
The UUO study was repeated to confirm the activity of 25070. The anti-miR was administered subcutaneously at a dose of 20 mg/kg.
Control treatment groups included UUO only (sham) and UUO with PBS administered subcutaneously. An additional control group included UUO with Tween-MC/20 carrier perorally. 25070 administered subcutaneously at dose of 20 mg/kg at 5 days prior to, 2 days prior to, and 3 days after, the UUO procedure. Irbesartan was administered perorally on daily on days 0 through 7 following the UUO procedure. Animals were sacrificed on Day 10 following the UUO procedure. Kidney tissue was collected for measurement of collagen 1A1 and collagen 3A1 expression.
Compounds 25220 and 25221, as well as 25923, were tested in the UUO model for their effects on fibrosis. Groups of 8 animals each were treated as follows: sham surgery, UUO with PBS, UUO with 25220, UUO with 25221, or UUO with 25923. Relative to the day of the UUO procedure, PBS or anti-miR-21 compound was administered at days −5, −3, and +3. Anti-miR-21 compounds were administered at a dose of 20 mg/kg. As the anti-miR compounds were administered prior to the UUO procedure, this dosing regimen is considered a prophylactic treatment. At day 10, animals were sacrificed and kidney was isolated for measurement of collagen expression. Collagen expression was measured by real-time PCR and normalized to GAPDH.

[2] = tested on: miR-21; test: miR-21 luciferase sensor assay in Hela cells; assay type: cell-based; conditions: for luciferase value normalized to beta-galactosidase activity / inhibition of miR-21 activity in the luciferase assay (in words): Hela cells
Method: The compounds were assessed for miR-21 inhibitory activity in a luciferase assay. A microRNA luciferase sensor construct was engineered using pGL3-MCS2 (Promega). The construct was introduced into Hela cells to test the ability of anti-miR compounds to inhibit activity of miR-21. In this assay, miR-21 present in the Hela cells binds to its cognate site(s) in the luciferase sensor construct, and suppresses luciferase expression. When the appropriate anti-miR is introduced into the cells, it binds to miR-21 and relieves suppression of luciferase expression. Thus, in this assay anti-miRs that are effective inhibitors of miR-21 expression will cause an increase in luciferase expression.
Hela cells (ATCC), stably transfected with a luciferase construct engineered to contain a sequence complementary of miR-21, were seeded in T-170 flasks (BD Falcon) at 3.5*10^6 cells/flask. Hela cells were grown in Dulbecco's Modified Eagle Medium with High Glucose (Invitrogen).
Each flask of Hela cells was transfected with 0.5 ug of a phRL sensor plasmid (Promega) expressing Renilla to be used in normalization. Hela cells were transfected using 20 ul Lipofectamine 2000/flask (Invitrogen). After 4 hours of transfection, cells were washed with PBS and trypsinized Hela cells were plated at 40 k/well in 24 well plates (BD Falcon) and left overnight.
Hela cells were transfected with anti-miRs using Lipofectin (Invitrogen) at 2.5 ul Lipofectin/100 nM ASO/ml Opti-MEM I Reduced Serum Medium (Invitrogen) for 4 hours. After ASO transfection, Hela cells were refed with Dulbecco's Modified Eagle Medium with High Glucose (Invitrogen).
Hela cells are passively lysed and luciferase activity measured using the Dual-Luciferase Reporter Assay System (Promega).
The luciferase assay was performed to test the ability of anti-miRs with the nucleoside patterns described herein to inhibit the activity of miR-21. Results were compared to a ‘mock’ treatment, in which cells received no anti-miR treatment. The experiment was repeated and results of two experimental replicates are shown in the following Table B, as the luciferase value normalized to beta-galactosidase activity.
The luciferase assay was performed as described herein to test the ability of anti-miRs in Table F to inhibit the activity of miR-21. Results were compared to a ‘mock’ treatment, in which cells received no anti-miR treatment. The experiment was repeated and results of two experimental replicates are shown in the following Table D, as fold change in luciferase value relative to the mock treatment.

[3] = 500 nM oligonucleotide, two experimental replicates
[4] = concentration of anti-miR compound 0.2 (unit not given)
[5] = concentration of anti-miR compound 0.6 (unit not given)
[6] = concentration of anti-miR compound 1.9 (unit not given)
[7] = concentration of anti-miR compound 5.6 (unit not given)
[8] = concentration of anti-miR compound 16.7 (unit not given)
[9] = concentration of anti-miR compound 50.0 (unit not given)

AECSATCSAGTCSTGAUSAAGCSUsAS (ACATCAGTCTGATAAGCTA; sugar and backbone modifications, chemistry not fully specified) [Compound 25221]
collagen 1A1 expression (FIG. 2A, in words) [1]: reduced collagen 1A1 and collagen 3A1 expression by a stastically significant amount | collagen 3A1 expression (FIG. 2B, in words) [1]: reduced collagen 1A1 and collagen 3A1 expression by a stastically significant amount

Te^MeCASA^MeCAST^MeCAGST^MeCTGASTAAGS^MeCTAe (TCAACATCAGTCTGATAAGCTA; cEt, 5-methyl C and phosphorothioate modifications, code letters not given here, further chemistry not given here) [Compound 25067]
luciferase value normalized to beta-galactosidase activity ([2]; 4 nM oligonucleotide): 43 | luciferase value normalized to beta-galactosidase activity ([2]; 20 nM oligonucleotide): 41 | luciferase value normalized to beta-galactosidase activity ([2]; 100 nM oligonucleotide): 30 | luciferase value normalized to beta-galactosidase activity [2, 3]: 42 | luciferase value normalized to beta-galactosidase activity ([2]; .16 nM oligonucleotide): 38 | luciferase value normalized to beta-galactosidase activity ([2]; .8 nM oligonucleotide): 23

AE^MeCSAT^MeCSAGT^MeCSTGATSAAG^MeCSTAS (antisense eA*k[5mC]*dA*dT*k[5mC]*dA*dG*dT*k[5mC]*dT*dG*dA*kT*dA*dA*dG*k[5mC]*dT*kA; further chemistry not given here) [Compound 25924, variation of 25070: 3′-terminal cEt nucleoside and each cytosine is a 5-methyl cytosine]
inhibition of miR-21 activity in the luciferase assay (in words) [2]: inhibition of miR-21 in a dose-dependent manner | fold change in luciferase value relative to the mock treatment [2, 4]: 1.10 fold change | fold change in luciferase value relative to the mock treatment [2, 5]: 1.25 fold change | fold change in luciferase value relative to the mock treatment [2, 6]: 1.37 fold change | fold change in luciferase value relative to the mock treatment [2, 7]: 7.80 fold change | fold change in luciferase value relative to the mock treatment [2, 8]: 13.01 fold change | fold change in luciferase value relative to the mock treatment [2, 9]: 8.99 fold change

AE^MeCSAETE^MeCSAEGETE^MeCSTEGEAE^MeTSAEAEGE^MeCSTEAE (antisense eA*k[5mC]*eA*eT*k[5mC]*eA*eG*eT*k[5mC]*eT*eG*eA*kT*eA*eA*eG*k[5mC]*eT*eA; further chemistry not given here) [Compound 25116, variation of 25070: each non-bicyclic nucleoside is 2′-MOE, each cytosine 5-methyl cytosine]
inhibition of miR-21 activity in the luciferase assay (in words) [2]: not effective inhibitors of miR-21 | fold change in luciferase value relative to the mock treatment [2, 4]: 1.06 fold change | fold change in luciferase value relative to the mock treatment [2, 5]: 0.98 fold change | fold change in luciferase value relative to the mock treatment [2, 6]: 1.06 fold change | fold change in luciferase value relative to the mock treatment [2, 7]: 2.47 fold change | fold change in luciferase value relative to the mock treatment [2, 8]: 5.64 fold change | fold change in luciferase value relative to the mock treatment [2, 9]: 1.98 fold change

AE^MeCSAT^MeCSAGT^MeCSTGATSAAG^MeCSTAE (antisense ACATCAGTCTGATAAGCTA; MOE ends, cEt, 5-methyl C, unmarked nucleosides not given here, further chemistry not given here) [Compound 25922, variation of 25070: each cytosine is a 5-methyl cytosine]
inhibition of miR-21 activity in the luciferase assay (in words) [2]: inhibition of miR-21 in a dose-dependent manner | fold change in luciferase value relative to the mock treatment [2, 4]: 1.02 fold change | fold change in luciferase value relative to the mock treatment [2, 5]: 1.10 fold change | fold change in luciferase value relative to the mock treatment [2, 6]: 1.34 fold change | fold change in luciferase value relative to the mock treatment [2, 7]: 8.81 fold change | fold change in luciferase value relative to the mock treatment [2, 8]: 11.60 fold change | fold change in luciferase value relative to the mock treatment [2, 9]: 11.46 fold change

AECSATCSASGTCSUSGAUSASAGCSUsAE (ACATCAGTCTGATAAGCTA; sugar and backbone modifications, chemistry not fully specified) [Compound 25220]
collagen 1A1 expression (FIG. 2A, in words) [1]: reduced collagen 1A1 and collagen 3A1 expression by a stastically significant amount | collagen 3A1 expression (FIG. 2B, in words) [1]: reduced collagen 1A1 and collagen 3A1 expression by a stastically significant amount

AE^MeCLAETE^MeCLAEGETE^MeCLTEGEAE^MeTLAEAEGE^MeCLTEAE (antisense eA*l[5mC]*eA*eT*l[5mC]*eA*eG*eT*l[5mC]*eT*eG*eA*lT*eA*eA*eG*l[5mC]*eT*eA) [Compound 25117, variation of 25070: each non-bicyclic nucleoside is 2′-MOE, each cytosine 5-methyl cytosine]
inhibition of miR-21 activity in the luciferase assay (in words) [2]: not effective inhibitors of miR-21 | fold change in luciferase value relative to the mock treatment [2, 4]: 1.05 fold change | fold change in luciferase value relative to the mock treatment [2, 5]: 1.15 fold change | fold change in luciferase value relative to the mock treatment [2, 6]: 1.14 fold change | fold change in luciferase value relative to the mock treatment [2, 7]: 3.64 fold change | fold change in luciferase value relative to the mock treatment [2, 8]: 7.36 fold change | fold change in luciferase value relative to the mock treatment [2, 9]: 2.91 fold change

Ae^MeCAST^MeCAGST^MeCTGASTASAGS^MeCTAe (ACATCAGTCTGATAAGCTA; listed as DNA, chemistry not fully specified) [Compound 25071]
luciferase value normalized to beta-galactosidase activity ([2]; 4 nM oligonucleotide): 50 | luciferase value normalized to beta-galactosidase activity ([2]; 20 nM oligonucleotide): 63 | luciferase value normalized to beta-galactosidase activity ([2]; 100 nM oligonucleotide): 53 | luciferase value normalized to beta-galactosidase activity [2, 3]: 42 | luciferase value normalized to beta-galactosidase activity ([2]; .16 nM oligonucleotide): 48 | luciferase value normalized to beta-galactosidase activity ([2]; .8 nM oligonucleotide): 36

AeTe^MeCeAeGeTe^MeCeTeGSASTeASASGe^MeCeUSAS [Compound 25731]
luciferase value normalized to beta-galactosidase activity ([2]; 4 nM oligonucleotide): 32 | luciferase value normalized to beta-galactosidase activity ([2]; 20 nM oligonucleotide): 39 | luciferase value normalized to beta-galactosidase activity ([2]; 100 nM oligonucleotide): 38 | luciferase value normalized to beta-galactosidase activity [2, 3]: 59 | luciferase value normalized to beta-galactosidase activity ([2]; .16 nM oligonucleotide): 34 | luciferase value normalized to beta-galactosidase activity ([2]; .8 nM oligonucleotide): 45

AeTe^MeCeASGSTe^MeCeTeGSASTeAeASGS^MeCeTeAe [Compound 25077]
luciferase value normalized to beta-galactosidase activity ([2]; 4 nM oligonucleotide): 45 | luciferase value normalized to beta-galactosidase activity ([2]; 20 nM oligonucleotide): 33 | luciferase value normalized to beta-galactosidase activity ([2]; 100 nM oligonucleotide): 42 | luciferase value normalized to beta-galactosidase activity [2, 3]: 40 | luciferase value normalized to beta-galactosidase activity ([2]; .16 nM oligonucleotide): 34 | luciferase value normalized to beta-galactosidase activity ([2]; .8 nM oligonucleotide): 33
